{"source": "patent US20240299353A1", "about": "“COMPOSITIONS AND METHODS FOR TREATING […] 5-MEO-DMT” (Alvarius Pharmaceuticals Ltd., priority 2021, published 2024)", "key": {"[1]": {"tested_on": "primary hippocampal neurons", "assay": "Antagonist pre-treatment studies of neuronal structural change, Sholl analysis", "format": "cell-based, rat", "details": "for neuronal structural complexity (normalised AUC): meta-analysis", "procedure": "Primary hippocampal cultures were grown on 18 mm glass coverslips at a density of 1×10^6 cells as described. On 3 DIV all cells underwent a full medium change. […] On 4 DIV, all cells underwent a second full medium change. Cells in the combination group were treated with 2 μM 5-MeO-DMT for a further 24 hours with all other groups beginning a 24-hour treatment. After treatment was completed the cells were fixed and processed as described below.\nBased on the findings with other psychedelic drugs that share structural and behavioral similarities to 5-MeO-DMT we selected ANA-12 (Sigma), an antagonist of TrkB, the BDNF receptor, and rapamycin (ThermoFischer) an antagonist of the mammalian target of rapamycin (mTOR). Due to the affinity and known behavioral change induced by 5-MeO-DMT at the 5-HT1AR and 5-HT2AR we assessed their contribution to structural changes mediated by 5-MeO-DMT. The receptors were antagonized with WAY-100635 maleate (Tocris) or Ketanserin (Axxora), respectively. For all antagonist studies the antagonist under investigation was added 15 mins prior to drug treatment. […] ANA-12, Ketanserin and rapamycin were dissolved in dimethyl sulfoxide (DMSO) with a final concentration of 0.01-0.04% for treatment. WAY100635 was dissolved in sterile dH2O.\nAfter termination of drug treatment coverslips were processed and imaged as outlined for immunocytochemistry. In all instances NeuN antibody staining was used to visualize projections from the cell body. Images were analyzed using the Simple Neurite Tracer and Sholl analysis plug-ins for ImageJ Fiji. For the Sholl analysis circle radii of 2 μm increments were used. All images were taken and analyzed by an experimenter blinded to treatment conditions.\nStatistical Analysis—Data are represented as mean±SEM. Statistical analyses were performed using GraphPad Prism (version 5). For analyses involving comparison of three or more groups, a one-way ANOVA with Bonferroni's post-hoc test was utilized where appropriate. No statistics were calculated for the individual points of the Sholl plots, instead, statistical analyses were performed on the aggregate data, the area under the curve (AUC) of the Sholl plot. Secondary measurements were the Nmax, the maximum number of intersections measured by the Sholl analysis, which indicated the number of projections emanating from a neuron and the average length of primary neurites originating from the cell soma."}, "hippocampal proteins": {"tested_on": "hippocampal proteins", "assay": "Hippocampal LC-MS/MS proteomics, chronic cocaine with single psychedelic administration", "format": "in vivo, Male Wister rats", "details": "for differential expression of proteins in the control hippocampus: single i.p. dose (5-MeO-DMT 5 mg/kg, LSD 0.14 mg/kg, psilocybin 1 mg/kg, DOI 1 mg/kg) vs saline-saline, p<0.05, FC ±20%; for differential expression of proteins in the chronic cocaine hippocampus: single i.p. dose after 14 days cocaine 20 mg/kg (5-MeO-DMT 5, LSD 0.14, psilocybin 1, DOI 1 mg/kg) vs cocaine-saline; for reversal of chronic cocaine mediated proteomic changes in the hippocampus: single treatment (5-MeO-DMT 5, LSD 0.14, psilocybin 1, DOI 1 mg/kg i.p.)", "procedure": "(§1) Animals were then randomly allocated to one of five groups and received a single i.p. injection of one of vehicle, 5 mg/kg 5-Meo-DMT, 0.14 mg/kg LSD, 1 mg/kg psilocybin, or 1 mg/kg DOI. On day 15, animals were euthanised and the hippocampus blunt dissected, snap frozen in liquid nitrogen and stored at −80° C. until further processing.\nProtein from hippocampal tissue was processed for liquid chromatography tandem Mass Spectrometry (LC-MS/MS). Samples were run on a Thermo Scientific Q Exactive Mass Spectrometer connected to a Dionex Ultimate 3000 (RSLCnano) chromatography system in the UCD Conway Institute Core Mass Spectrometry Facility. Peptide and protein identification of MS/MS spectra were searched against the rat UniProt database using carbamidomethylation (C) as a fixed modification and acetylation (protein N terminus) and oxidation (M) as variable modifications with a false discovery rate filtering of 0.01. MaxQuant was using to generate label-free quantitative (LFQ) ion intensities and the Perseus statistical software contained in the MaxQuant package was used to analyse LFQ ion intensity. Statistical significance (p<0.05, FC±20%) of mean LFQ intensity between treatment groups was determined by two sample t-test. […] Networks were visualised using the stringApp (version 1.6.0) plugin for the Cytoscape software platform (version 3.8.2)."}, "[2]": {"tested_on": "top 10 cocaine-dysregulated biological pathways in the hippocampus", "assay": "Biological pathway analysis (IPA) of transcriptomics, cocaine-dysregulated pathways", "format": "in vivo, Male Wister rats", "details": "single treatment", "procedure": "as §1\nSubsequent pathway analyses were done using Ingenuity Pathway Analysis (IPA). Analysis settings for IPA included the Ingenuity Knowledge Base (Genes Only), direct and indirect relationships, and endogenous chemicals of the previously filtered list of differentially expressed genes. IPA was filtered to only consider molecules where the species were human, rat, or mouse and the confidence can be experimentally observed. Canonical pathways were utilized in pathway analysis, where the spreadsheet organized the values of significance to −log(p-value) and the rate of regulation to the z-score. Negative z-score values indicate downregulation and positive values indicate upregulation."}, "5-HT2AR": {"target": "5-HT2AR (Homo sapiens, UniProt P28223)", "sequence (P28223 whole entry)": "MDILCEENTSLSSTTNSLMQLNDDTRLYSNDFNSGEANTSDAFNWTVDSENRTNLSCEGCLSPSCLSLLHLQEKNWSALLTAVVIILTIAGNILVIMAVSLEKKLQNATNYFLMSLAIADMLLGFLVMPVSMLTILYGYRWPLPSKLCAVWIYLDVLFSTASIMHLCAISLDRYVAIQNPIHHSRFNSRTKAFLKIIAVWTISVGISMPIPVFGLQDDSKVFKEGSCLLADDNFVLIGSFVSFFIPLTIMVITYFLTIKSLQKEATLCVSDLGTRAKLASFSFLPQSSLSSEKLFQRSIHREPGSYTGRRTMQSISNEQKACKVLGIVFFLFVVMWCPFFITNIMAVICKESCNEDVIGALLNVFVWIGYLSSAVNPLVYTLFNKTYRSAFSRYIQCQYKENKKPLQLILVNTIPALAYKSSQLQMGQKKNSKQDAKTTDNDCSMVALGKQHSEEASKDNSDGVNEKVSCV", "details": "metabolite of 5-MeO-DMT; cited from earlier work"}, "[3]": {"details": "ketanserin 100 μM treated groups relative to control"}}}
{"smiles": "O=C(Nc1ccccc1C(=O)NC1CCCCNC1=O)c1cc2ccccc2s1", "note": "(stereo not drawn) [ANA-12]", "values": [{"measurement": "average neurite length", "setting": "[1]; ANA-12 10 μM pre-treatment, 5-MeO-DMT-induced increase", "value": "blocked"}, {"measurement": "AUC of the Sholl plot", "setting": "[1]; ANA-12 10 μM, 15 min pre-treatment before 5-MeO-DMT, cocaine or combination", "value": "prevented the 5-Meo-, cocaine- or combination-induced increase in AUC"}, {"measurement": "maximum number of intersections (Nmax)", "setting": "[1]; ANA-12 pre-treated combination group relative to vehicle pre-treated combination group", "value": "significantly reduced"}, {"measurement": "AUC of the Sholl plot", "setting": "[1]; control+ANA-12 vs control+vehicle (basal complexity)", "value": "no difference in AUC"}, {"measurement": "neuronal structural complexity (normalised AUC)", "setting": "[1]; ANA-12 pre-treatment", "value": "prevented the 5-Meo-, cocaine- or combination-induced increase in complexity"}]}
{"smiles": "COc1cc(CC(C)N)c(OC)cc1I", "note": "(stereo not drawn) [DOI, 2,5-Dimethoxy-4-iodoamphetamine]", "values": [{"measurement": "differential expression of proteins in the control hippocampus", "setting": "hippocampal proteins", "value": 79, "unit": "proteins"}, {"measurement": "differential expression of proteins in the chronic cocaine hippocampus", "setting": "hippocampal proteins", "value": 55, "unit": "proteins"}, {"measurement": "reversal of chronic cocaine mediated proteomic changes in the hippocampus", "setting": "hippocampal proteins", "value": 70, "unit": "%"}]}
{"smiles": "O=C(c1ccc(F)cc1)C1CCN(CCn2c(=O)[nH]c3ccccc3c2=O)CC1", "note": "[Ketanserin]", "values": [{"measurement": "average neurite length", "setting": "[1]; [3]", "value": "significantly decreased"}, {"measurement": "maximum number of intersections (Nmax)", "setting": "[1]; [3]", "value": "significantly reduced"}, {"measurement": "normalised AUC of the Sholl plot", "setting": "[1]; ketanserin 100 μM, 15 min pre-treatment, all treatment groups", "value": "significantly reduced normalised AUC across all treatment groups"}, {"measurement": "neuronal structural complexity (normalised AUC)", "setting": "[1]; ketanserin pre-treatment", "value": "significantly reduced normalised AUC across all treatment groups"}]}
{"smiles": "CCN(CC)C(=O)[C@@H]1C=C2c3cccc4[nH]cc(c34)C[C@H]2N(C)C1", "note": "[LSD, Lysergic acid diethylamide]", "values": [{"measurement": "differential expression of proteins in the control hippocampus", "setting": "hippocampal proteins", "value": 73, "unit": "proteins"}, {"measurement": "differential expression of proteins in the chronic cocaine hippocampus", "setting": "hippocampal proteins", "value": 57, "unit": "proteins"}, {"measurement": "reversal of chronic cocaine mediated proteomic changes in the hippocampus", "setting": "hippocampal proteins", "value": 59, "unit": "%"}, {"measurement": "number of the top 10 dysregulated pathways corrected", "setting": "[2]", "value": 5, "unit": "pathways"}, {"measurement": "top 10 cocaine-dysregulated biological pathways corrected", "setting": "[2]", "value": 50, "unit": "%"}]}
{"smiles": "COc1ccccc1N1CCN(CCN(C(=O)C2CCCCC2)c2ccccn2)CC1.O=C(O)/C=C\\C(=O)O", "note": "[WAY100635, WAY-100635 maleate]", "values": [{"measurement": "average neurite length", "setting": "[1]; WAY100635 100 nM pre-treatment before 5-MeO-DMT", "value": "prevented the 5-Meo-mediated increase in neurite length"}, {"measurement": "maximum number of intersections (Nmax)", "setting": "[1]; WAY100635 100 nM treated groups relative to vehicle treated pairings", "value": "significantly reduced"}, {"measurement": "normalised AUC of the Sholl plot", "setting": "[1]; WAY100635 100 nM, 15 min pre-treatment before 5-MeO-DMT or cocaine", "value": "prevented the 5-Meo- and cocaine-induced increase in normalised AUC"}, {"measurement": "neuronal structural complexity (normalised AUC)", "setting": "[1]; WAY100635 pre-treatment", "value": "prevented the increase in complexity mediated by all treatments"}]}
{"smiles": "CN(C)CCc1c[nH]c2ccc(O)cc12", "note": "[bufotenine, 5-hydroxy,N,Ndimethyltryptamine]", "values": [{"measurement": "affinity for the 5-HT2AR relative to the parent compound", "setting": "5-HT2AR", "value": "much higher affinity for the 5-HT2AR than the parent compound"}]}
{"smiles": "CN(C)CCc1c[nH]c2cccc(OP(=O)(O)O)c12", "note": "[psilocybin, Psilocybin]", "values": [{"measurement": "differential expression of proteins in the control hippocampus", "setting": "hippocampal proteins", "value": 91, "unit": "proteins"}, {"measurement": "differential expression of proteins in the chronic cocaine hippocampus", "setting": "hippocampal proteins", "value": 45, "unit": "proteins"}, {"measurement": "reversal of chronic cocaine mediated proteomic changes in the hippocampus", "setting": "hippocampal proteins", "value": 74, "unit": "%"}, {"measurement": "number of the top 10 dysregulated pathways corrected", "setting": "[2]", "value": 7, "unit": "pathways"}, {"measurement": "top 10 cocaine-dysregulated biological pathways corrected", "setting": "[2]", "value": 70, "unit": "%"}]}
